In patent US11369587B2, “Injectable pharmaceutical composition of tecovirimat and preparation method thereof” (priority 2016, dated 2022):

Columns and labels:
[1] = type: physicochemical; settings: ternary solubilizing composition of Tecovirimat, cyclodextrin and Meglumine
Procedure: An excessive amount of Tecovirimat was added to an aqueous solution comprising meglumine and cyclodextrin at a different ratio to form a suspension. The suspension was placed in a constant-temperature incubation shaker, and was shaken at a temperature of 25±1° C., 37±1° C. and 60±1° C. for 72 h, respectively. After reaching equilibrium, the suspension was filtered through a 0.45 μm hydrophilic filter membrane to obtain a filtrate. After the filtrate was properly diluted with an acetonitrile-water (50:50, v/v) solution, the absorbance was measured at 224 nm, and the solubility of Tecovirimat was calculated. The corresponding solubility curve was plotted by using the solubility of the drug as the ordinate, and using the concentration of cyclodextrin and/or meglumine as the abscissa.

[2] = 20%-40% (w/v) hydroxypropyl-cyclodextrin (HP-3-CD) at 37° C.; cited from earlier work

O=C(NN1C(=O)[C@@H]2[C@@H]3C=C[C@@H]([C@H]4C[C@@H]34)[C@@H]2C1=O)c1ccc(C(F)(F)F)cc1 [Tecovirimat, 4-trifluoromethyl-N-(3,3a,4,4a,5,5a,6,6a-octahydro-1,3-dioxo-4,6-ethenocycloprop[f]isoindol-2(1H)-yl)-benzamide]
maximal solubility [1]: up to 152 mg/ml
solubility [2]: 1500 to 11000 µg/mL
